Source: ChEMBL document CHEMBL1201862, “PubChem BioAssay data set” (2004)
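All cell lines were grown in 96-well plates and treated with compound for 48 hours. GI50: concentration for 50% inhibition of growth.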 Activity calls are given as the source filed them. No stated cut-off is given here; in the data, active = GI50 up to about 1.1 µM and inactive = higher.

What was measured:
Assay in all cases: inhibition of tumour cell growth, NCI panel, 48 h
[1] = system: MCF7
[2] = system: HCT-15
[3] = system: SF-295
[4] = system: CCRF-CEM
[5] = system: 786-0
[6] = system: SK-MEL-28
[7] = system: NCI-H522
[8] = system: SNB-75
[9] = system: U-251
[10] = system: SW-620
[11] = system: SK-MEL-2
[12] = system: M14
[13] = system: RPMI-8226
[14] = system: T47D
[15] = system: SF-268
[16] = system: OVCAR-3
[17] = system: K562
[18] = system: PC-3
[19] = system: NCI-H226
[20] = system: TK-10

Row | Compound | GI50 [1] | GI50 [2] | GI50 [3] | GI50 [4] | GI50 [5] | GI50 [6] | GI50 [7] | GI50 [8] | GI50 [9] | GI50 [10] | GI50 [11] | GI50 [12] | GI50 [13] | GI50 [14] | GI50 [15] | GI50 [16] | GI50 [17] | GI50 [18] | GI50 [19] | GI50 [20]
1 | COC(=O)Nc1nc2cc(S(=O)(=O)n3nnc4ccccc43)ccc2[nH]1 | 28.1 µM (inactive) | > 100 µM | 21.4 µM (inactive) | > 100 µM (inactive) | 40.2 µM (inactive) | > 100 µM (inactive) | 36.8 µM (inactive) | 6.62 µM (inactive) | 26.6 µM (inactive) | > 100 µM (inactive) | > 100 µM (inactive) | > 100 µM (inactive) | 0.708 µM (active) | 37.8 µM (inactive) | 21.5 µM (inactive) | > 100 µM (inactive) | > 100 µM (inactive) | 35 µM (inactive) |  | 
2 | COc1ccc(C(=O)/C=C/c2ccncc2)cc1OC | 3.74 µM (inactive) | 15.4 µM | 16.1 µM (inactive) | 4.02 µM (inactive) | 11.4 µM (inactive) | 17.3 µM (inactive) | 7.73 µM (inactive) | 13.5 µM (inactive) | 11.2 µM (inactive) |  | 16.7 µM (inactive) | 14.7 µM (inactive) |  | 12.6 µM (inactive) | 13.7 µM (inactive) | 6.27 µM (inactive) | 2.31 µM (inactive) | 16.7 µM (inactive) | 15.5 µM (inactive) | 16.4 µM (inactive)
3 | CSc1ncnc2c1cnn2Cc1cnnn1COCC(O)CO (stereo not given) | > 100 µM (inactive) | > 100 µM | > 100 µM (inactive) | > 100 µM (inactive) | > 100 µM (inactive) | > 100 µM (inactive) | 11.1 µM (inactive) |  | > 100 µM (inactive) | > 100 µM (inactive) | > 100 µM (inactive) | > 100 µM (inactive) | > 100 µM (inactive) | > 100 µM (inactive) | 13.8 µM (inactive) | > 100 µM (inactive) | > 100 µM (inactive) | > 100 µM (inactive) | > 100 µM (inactive) | > 100 µM (inactive)
4 | CSc1cc(Cl)c(C)cc1S(=O)(=O)NC(=O)NNc1cnc2ccccc2n1 | > 100 µM (inactive) | > 100 µM | > 100 µM (inactive) | > 100 µM (inactive) | > 100 µM (inactive) | > 100 µM (inactive) | > 100 µM (inactive) |  | > 100 µM (inactive) | > 100 µM (inactive) | > 100 µM (inactive) | > 100 µM (inactive) |  | > 100 µM (inactive) | > 100 µM (inactive) | > 100 µM (inactive) | > 100 µM (inactive) | > 100 µM (inactive) | > 100 µM (inactive) | 
5 | COC(=O)C1=C(C)NC(C)=C(C(=O)OC)C1c1ccccc1NO | > 100 µM (inactive) | > 100 µM | > 100 µM (inactive) | 68.5 µM (inactive) | > 100 µM (inactive) | > 100 µM (inactive) | > 100 µM (inactive) |  | > 100 µM (inactive) | 68.1 µM (inactive) | > 100 µM (inactive) | > 100 µM (inactive) | 48.9 µM (inactive) | > 100 µM (inactive) | > 100 µM (inactive) | > 100 µM (inactive) | 20.1 µM (inactive) | > 100 µM (inactive) | > 100 µM (inactive) | > 100 µM (inactive)
6 | CCOC(=O)c1ccc(NCc2ccc3nc(OC)c(OC)nc3c2)cc1 | > 100 µM (inactive) | > 100 µM | > 100 µM (inactive) | > 100 µM (inactive) | 94.8 µM (inactive) | > 100 µM (inactive) | > 100 µM (inactive) | 33.7 µM (inactive) | > 100 µM (inactive) | > 100 µM (inactive) | > 100 µM (inactive) | > 100 µM (inactive) |  | 57.1 µM (inactive) | > 100 µM (inactive) | > 100 µM (inactive) | > 100 µM (inactive) | > 100 µM (inactive) | > 100 µM (inactive) | 
7 | C/C=C1\C(=O)OC2CCN3CCC(COC(=O)C(C)(O)C(C)C1O)C23 (stereo not given) | > 100 µM (inactive) | > 100 µM | > 100 µM (inactive) |  | > 100 µM (inactive) | > 100 µM (inactive) | > 100 µM (inactive) | > 100 µM (inactive) | > 100 µM (inactive) | > 100 µM (inactive) | > 100 µM (inactive) | > 100 µM (inactive) |  | > 100 µM (inactive) | > 100 µM (inactive) |  | > 100 µM (inactive) | > 100 µM (inactive) | > 100 µM (inactive) | > 100 µM (inactive)
8 | CCOC(=O)c1cnc(-n2[nH]c(C)c(CCO)c2=O)[nH]c1=O | > 100 µM (inactive) | > 100 µM | > 100 µM (inactive) | > 100 µM (inactive) | > 100 µM (inactive) | > 100 µM (inactive) |  | 88.3 µM (inactive) | > 100 µM (inactive) | > 100 µM (inactive) | > 100 µM (inactive) | > 100 µM (inactive) | > 100 µM (inactive) | > 100 µM (inactive) | > 100 µM (inactive) | > 100 µM (inactive) | > 100 µM (inactive) | > 100 µM (inactive) | > 100 µM (inactive) | > 100 µM (inactive)
